These results are taken from ChEMBL document CHEMBL5226393, “Semisynthesis of 22,25-Epoxylanostane Triterpenoids: Structure Revision and Protective Effects against Oxygen-Glucose Deprivation/Reoxygenation Injury in H9c2 Cells” (2023).

Activity calls are given as the source filed them. No cut-off for these calls is given here.

In experiment [1] the test system is H9c2. Kind of experiment: Cardioprotective activity against OGD/R-induced cell injury in rat H9c2 cells assessed as increase in cell viability at 20 uM subjected to OGD condition for 6 hrs followed by compound treatment and measured after 6 hrs by MTT assay. The format is functional, cell-based. (Formazan colour is commonly taken as a measure of viable cells.)

The subject of experiment [2] is H9c2. Briefly: Induction of apoptosis in OGD/R-induced rat H9c2 cells assessed as total apoptotic cells at 10 uM preincubated with compound for 24 hrs followed by treatment under OGD condition by Annexin V-FITC staining based flow cytometric analysis relative to control. The format is functional. On the technique in general: In flow cytometry, cells or beads pass a laser one at a time.

The test system of experiment [3] is H9c2. Kind of experiment: Induction of mitochondrial membrane potential loss in OGD/R-induced rat H9c2 cells assessed as increase in red to green fluorescence ratio by JC-1 staining based microscopic analysis relative to control. Type of experiment: functional.
Experiment [4] relates to H9c2. Kind of experiment: Cardioprotective activity against OGD/R-induced cell injury in rat H9c2 cells assessed as increase in cell viability at 20 uM subjected to OGD condition for 6 hrs followed by compound treatment and measured after 6 hrs by MTT assay relative to control. Type of experiment: functional.
Experiment [5] has as its system H9c2. Kind of experiment: Induction of apoptosis in OGD/R-induced rat H9c2 cells assessed as viable cells at 10 uM preincubated with compound followed by treatment under OGD condition by Annexin V-FITC staining based flow cytometric analysis (reference value: 93.9%). The settings on record: read-out: Activity. The format is functional.
The subject of experiment [6] is H9c2. Briefly: Induction of apoptosis in OGD/R-induced rat H9c2 cells assessed as total apoptotic cells at 5 uM preincubated with compound for 24 hrs followed by treatment under OGD condition by Annexin V-FITC staining based flow cytometric analysis relative to control. Type of experiment: functional.
The subject of experiment [7] is H9c2. Briefly: Induction of apoptosis in OGD/R-induced rat H9c2 cells assessed as necrotic cells at 5 uM preincubated with compound followed by treatment under OGD condition by Annexin V-FITC staining based flow cytometric analysis (reference value: 1.01%). Type of experiment: functional.
Experiment [8] relates to H9c2. Briefly: Cardioprotective activity against OGD/R-induced cell injury in rat H9c2 cells assessed as increase in cell viability at 5 uM subjected to OGD condition for 6 hrs followed by compound treatment and measured after 6 hrs by MTT assay relative to control. The format is functional.
The test system of experiment [9] is H9c2. Kind of experiment: Induction of apoptosis in OGD/R-induced rat H9c2 cells assessed as necrotic cells at 10 uM preincubated with compound followed by treatment under OGD condition by Annexin V-FITC staining based flow cytometric analysis (reference value: 1.01%). Type of experiment: functional.
In experiment [10] the test system is H9c2. Kind of experiment: Induction of apoptosis in OGD/R-induced rat H9c2 cells assessed as early apoptotic cells at 10 uM preincubated with compound followed by treatment under OGD condition by Annexin V-FITC staining based flow cytometric analysis (reference value: 0.97%). The format is functional.
Experiment [11] has as its system H9c2. Kind of experiment: Induction of apoptosis in OGD/R-induced rat H9c2 cells assessed as viable cells at 5 uM preincubated with compound followed by treatment under OGD condition by Annexin V-FITC staining based flow cytometric analysis (reference value: 93.9%). The format is functional. To be noted: read-out: Activity.
Experiment [12] concerns H9c2. Kind of experiment: Induction of apoptosis in OGD/R-induced rat H9c2 cells assessed as early apoptotic cells at 5 uM preincubated with compound followed by treatment under OGD condition by Annexin V-FITC staining based flow cytometric analysis (reference value: 0.97%). The format is functional.
The subject of experiment [13] is H9c2. Briefly: Induction of apoptosis in OGD/R-induced rat H9c2 cells assessed as late apoptotic cells at 10 uM preincubated with compound followed by treatment under OGD condition by Annexin V-FITC staining based flow cytometric analysis (reference value: 4.14%). The format is functional.
Experiment [14] concerns H9c2. Briefly: Induction of apoptosis in OGD/R-induced rat H9c2 cells assessed as late apoptotic cells at 5 uM preincubated with compound followed by treatment under OGD condition by Annexin V-FITC staining based flow cytometric analysis (reference value: 4.14%). The format is functional.
Experiment [15] has as its system H9c2. Briefly: Cardioprotective activity against OGD/R-induced cell injury in rat H9c2 cells assessed as increase in cell viability at 100 uM subjected to OGD condition for 6 hrs followed by compound treatment and measured after 6 hrs by MTT assay relative to control. Type of experiment: functional.
For experiment [16], the system named is H9c2. Kind of experiment: Induction of apoptosis in OGD/R-induced rat H9c2 cells assessed as viable cells at 100 uM preincubated with compound followed by treatment under OGD condition by Annexin V-FITC staining based flow cytometric analysis (reference value: 93.9%). Type of experiment: functional. To be noted: read-out: Activity.
The test system of experiment [17] is H9c2. Briefly: Induction of apoptosis in OGD/R-induced rat H9c2 cells assessed as total apoptotic cells at 100 uM preincubated with compound for 24 hrs followed by treatment under OGD condition by Annexin V-FITC staining based flow cytometric analysis relative to control. The format is functional.
The test system of experiment [18] is H9c2. Kind of experiment: Induction of apoptosis in OGD/R-induced rat H9c2 cells assessed as early apoptotic cells at 100 uM preincubated with compound followed by treatment under OGD condition by Annexin V-FITC staining based flow cytometric analysis (reference value: 0.97%). Type of experiment: functional.
Experiment [19] deals with H9c2. Briefly: Induction of apoptosis in OGD/R-induced rat H9c2 cells assessed as necrotic cells at 100 uM preincubated with compound followed by treatment under OGD condition by Annexin V-FITC staining based flow cytometric analysis (reference value: 1.01%). The format is functional.
Experiment [20] deals with H9c2. Kind of experiment: Induction of apoptosis in OGD/R-induced rat H9c2 cells assessed as late apoptotic cells at 100 uM preincubated with compound followed by treatment under OGD condition by Annexin V-FITC staining based flow cytometric analysis (reference value: 4.14%). Type of experiment: functional.

Regarding `C[C@H]([C@@H]1C[C@@H](O)C(C)(C)O1)[C@H]1CC[C@@]2(C)C3=CC[C@H]4C(C)(C)[C@@H](O)CC[C@]4(C)C3=CC[C@]12C`, the outcome in experiment [1] was inactive.

In the case of `C[C@@H]([C@H]1CC[C@@]2(C)C3=C(CC[C@]12C)[C@@]1(C)CC[C@H](O)C(C)(C)[C@@H]1CC3)[C@H]1CCC(C)(C)O1`, the Activity in experiment [2] came to 14.5%; in [3], 90%; in experiment [4] it was 18.7%; in [6], 17.4%; in [7], 0.52%; in experiment [8] it was 11.4%. Further, the Activity stood at 0.035% in [9]; 5.12% in experiment [10]; 2.55% in experiment [12]; 8.97% in experiment [13]; 13.3% in experiment [14]. In experiment [5], the viability at 10 µM is 85.9%. For the same compound, the viability at 5 µM in [11] was 83.7%.

Take `C[C@@H]([C@H]1CC[C@@]2(C)C3=CC[C@H]4C(C)(C)[C@@H](O)CC[C@]4(C)C3=CC[C@]12C)[C@H]1C[C@H](O)C(C)(C)O1`: the result in [1] was inactive.

Turning to `C[C@H]([C@@H]1CCC(C)(C)O1)[C@H]1CC[C@@]2(C)C3=CC[C@H]4C(C)(C)[C@@H](O)CC[C@]4(C)C3=CC[C@]12C`, the Activity in experiment [4] is 10.6%.

On to `CC1=Nc2ccc(Cl)cc2S(=O)(=O)N1` [DIAZOXIDE], for which the Activity in experiment [15] is 14.9%; in experiment [17], 17.3%; in experiment [18], 5.41%; in experiment [19] it was 0.58%; in [20], 12.7%. In addition, in [16], the viability at 100 µM was 81.3%.

Turning to `C[C@@H]([C@H]1CC[C@@]2(C)C3=CC[C@H]4C(C)(C)[C@@H](O)CC[C@]4(C)C3=CC[C@]12C)[C@H]1CCC(C)(C)O1`, the Activity in experiment [4] is 11.4%.

Consider `C=C(C)[C@@H]1CC=C2C(=CC[C@]3(C)[C@@H]([C@H](C)[C@H]4CCC(C)(C)O4)CC[C@@]23C)[C@@]1(C)CCC(=O)O`, for which the Activity in experiment [4] is recorded as 17.7%; in experiment [8], 6.4%.

As for `C[C@@H]([C@H]1CC[C@@]2(C)C3=C(CC[C@]12C)[C@@]1(C)CC[C@H](O)C(C)(C)[C@@H]1CC3)[C@H]1C[C@@H](O)C(C)(C)O1`, the outcome in experiment [1] was inactive.

Take `C[C@H]([C@@H]1CCC(C)(C)O1)[C@H]1CC[C@@]2(C)C3=C(CC[C@]12C)[C@@]1(C)CC[C@H](O)C(C)(C)[C@@H]1CC3`: in experiment [4], the Activity is reported as 10.8%.

For the compound `C[C@H]([C@@H]1C[C@H](O)C(C)(C)O1)[C@H]1CC[C@@]2(C)C3=CC[C@H]4C(C)(C)[C@@H](O)CC[C@]4(C)C3=CC[C@]12C`, the result in [1] was inactive.

`C[C@H]([C@@H]1C[C@@H](O)C(C)(C)O1)[C@H]1CC[C@@]2(C)C3=C(CC[C@]12C)[C@@]1(C)CC[C@H](O)C(C)(C)[C@@H]1CC3`: the outcome in [1] was inactive.

Regarding `C[C@@H]([C@H]1CC[C@@]2(C)C3=CC[C@H]4C(C)(C)[C@@H](O)CC[C@]4(C)C3=CC[C@]12C)[C@H]1C[C@@H](O)C(C)(C)O1`, in experiment [1], the result was inactive.

Turning to `C[C@@H]([C@H]1CC[C@@]2(C)C3=C(CC[C@]12C)[C@@]1(C)CC[C@H](O)C(C)(C)[C@@H]1CC3)[C@H]1C[C@H](O)C(C)(C)O1`, the outcome in experiment [1] was inactive.

For the compound `C[C@H]([C@@H]1C[C@H](O)C(C)(C)O1)[C@H]1CC[C@@]2(C)C3=C(CC[C@]12C)[C@@]1(C)CC[C@H](O)C(C)(C)[C@@H]1CC3`, the result in experiment [1] was inactive.
